Experimental data from patent US10449245B2 (priority 2014, dated 2019).
Several values for one entry are separate records, joined by “and”; a condition that tells them apart may be missing. Equal values may be shown once.

Columns and labels:
[1] = system: latently infected cell lines and primary T cells; settings: cited from earlier work
[2] = system: Histone H3 acetylation in lymphocytes; experiment: Lymphocyte histone H3 acetylation by flow cytometry, REDUC clinical trial Part A; format: in vivo, human; parameters: key to Histone Acetylation, Mean: MFI, background (isotype control) MFI subtracted; settings: for Histone Acetylation (anti-acetyl histone H3 MFI in lymphocytes): individual subjects 1101, 1102, 1103, 1105, 1106, 1107 = c1-c6; for Histone Acetylation (anti-acetyl histone H3 MFI in lymphocytes) / Histone Acetylation, Mean: romidepsin 5 mg/m^2 i.v. days 0, 7, 14; for Histone Acetylation, Mean: mean of subjects
Procedure: Part A of the clinical study contained three phases. First, a pre-treatment phase of 2-4 weeks (visit 1-visit 2a) to confirm the stability of the latent HIV-1 reservoir and determine baseline HIV-1 T lymphocyte specific immunity. Second, a viral reactivation phase of 3 weeks (visit 2 to visit 7) consisting of one cycle of romidepsin infusions at a dosing of 5 mg/m^2 administered intravenously over a 4 hour period. De-escalation down to 2.5 mg/m^2 was planned in case of dose-limiting toxicity was observed. Romidepsin was infused on days 0, 7, and 14. Third, a post-activation phase of ˜9 weeks (visit 8 to visit 11) to assess the effect of romidepsin on the size of latent HIV-1I reservoir.
Histone H3 acetylation was measured in lymphocytes using flow cytometry with intracellular cytokine staining on fresh isolated PBMCs. Freshly isolated PBMC's were fixated, permeabilised and stained with acetylation-specific antibodies, providing the possibility to evaluate epigenetic modifications on Histones (Rigby L, Muscat A, Ashley D, Algar E. Epigenetics 2012; 7(8):875-882). Briefly, PBMCs (1×10^6) were resuspended in 3 ml ice-cold PBS/1% FBS and centrifuged, then vortexed to dissolve pellet and fixative added, 100 μl 2% PFA (ice-cold), vortexed briefly and incubated on ice for 15 min. Cells were then washed in 4 ml PBS, resuspend in 200 μl PBS and stored at 4° C. until staining. Samples were washed with 3 ml FACS buffer and vortexed to dissolve cell pellet prior to adding 100 μl 0.2% Triton X-100, vortex briefly and incubate for 10 min. at room temperature (RT). Samples were then washed with FACS buffer, 600 μl Block (PBS/10% FBS) was added, sample vortexed to resuspend cell pellet and incubate for 20 min at RT. After washing with 3 ml FACS buffer 5 μl primary antibody Anti-acetyl histone H3 (rabbit) at 200 μg/ml (Merck Millipore) or isotype control at 200 μg/ml (normal rabbit serum, LifeTechnologie) was added, and samples vortexed to resuspend cell pellet, and incubated for 1 hour at RT. Following this samples […]), vortexed to resuspend cell pellet and incubated for 1 hour in the dark (RT). Finall samples were washed with FACS buffer and resuspended in 80 μl PBS and analyzed by FACS (50 000 events, anti-acetyl histone H3 Median Fluorescence Intensity, MFI, calculated by subtracting background MFI from isotype control).

[3] = visit 2A (day 0, pre-treatment)

C/C=C1\NC(=O)[C@H]2CSSCC/C=C/[C@H](CC(=O)N[C@H](C(C)C)C(=O)N2)OC(=O)[C@H](C(C)C)NC1=O [romidepsin, (1S,4S,7Z,10S,16E,21R)-7-ethylidene-4,21-bis(1-methylethyl)-2-oxa-12,13-dithia-5,8,20,23-tetraazabicyclo[8.7.6]tricos-16-ene-3,6,9,19,22-pentone]
activation of HIV-1 expression [1]: potently activates HIV-1 expression
Lymphocyte histone H3 acetylation, maximum fold range relative to baseline ([2]; following each romidepsin administration, 5 mg/m^2): 3.7-7.7 fold
Histone Acetylation (anti-acetyl histone H3 MFI in lymphocytes) [2, 3]: 1181 and 1258 and 562 and 1020 and 309 and 372
Histone Acetylation, Mean [2, 3]: 783.6667
Histone Acetylation (anti-acetyl histone H3 MFI in lymphocytes) ([2]; visit 2B (day 0 + 4 h)): 3493 and 1534 and 3481 and 2473 and 2360 and 2463
Histone Acetylation, Mean ([2]; visit 2B (day 0 + 4 h)): 2634
Histone Acetylation (anti-acetyl histone H3 MFI in lymphocytes) ([2]; visit 3 (day 1)): 3465 and 2197 and 2451 and 2216 and 2475 and 1757
Histone Acetylation, Mean ([2]; visit 3 (day 1)): 2426.833
Histone Acetylation (anti-acetyl histone H3 MFI in lymphocytes) ([2]; visit 4 (day 3)): 3102 and 2964 and 3201 and 4130 and 3302 and 2767
Histone Acetylation, Mean ([2]; visit 4 (day 3)): 3244.333
Histone Acetylation (anti-acetyl histone H3 MFI in lymphocytes) ([2]; visit 5A (day 7)): 2065 and 2740 and 1284 and 2042 and 2863 and 596
Histone Acetylation, Mean ([2]; visit 5A (day 7)): 1931.667
Histone Acetylation (anti-acetyl histone H3 MFI in lymphocytes) ([2]; visit 5B (day 7 + 4 h)): 5363 and 4597 and 4059 and 3198 and 4239 and 2214
Histone Acetylation, Mean ([2]; visit 5B (day 7 + 4 h)): 3945
Histone Acetylation (anti-acetyl histone H3 MFI in lymphocytes) ([2]; visit 6 (day 10)): 2788 and 4124 and 3402 and 3859 and 3748 and 3280
Histone Acetylation, Mean ([2]; visit 6 (day 10)): 3533.5
Histone Acetylation (anti-acetyl histone H3 MFI in lymphocytes) ([2]; visit 7A (day 14)): 2486 and 3236 and 1789 and 1794 and 1438 and 1211
Histone Acetylation, Mean ([2]; visit 7A (day 14)): 1992.333
Histone Acetylation (anti-acetyl histone H3 MFI in lymphocytes) ([2]; visit 7B (day 14 + 4 h)): 7228 and 3580 and 3317 and 4101 and 5467 and 3444
Histone Acetylation, Mean ([2]; visit 7B (day 14 + 4 h)): 4522.833
Histone Acetylation (anti-acetyl histone H3 MFI in lymphocytes) ([2]; visit 8 (day 17)): 3875 and 4502 and 3147 and 3675 and 3572
Histone Acetylation, Mean ([2]; visit 8 (day 17)): 3754.2
Histone Acetylation (anti-acetyl histone H3 MFI in lymphocytes) ([2]; visit 9 (day 21)): 741 and 2416 and 1607 and 1923 and 1179 and 2467
Histone Acetylation, Mean ([2]; visit 9 (day 21)): 1722.167
Histone Acetylation (anti-acetyl histone H3 MFI in lymphocytes) ([2]; visit 10 (day 56)): 1733 and 3579 and 2622 and 3035 and 1592 and 1865
Histone Acetylation, Mean ([2]; visit 10 (day 56)): 2404.333
Histone Acetylation (anti-acetyl histone H3 MFI in lymphocytes) ([2]; visit 11 (day 84)): 1243 and 1823 and 1292 and 1287 and 1059 and 970
Histone Acetylation, Mean ([2]; visit 11 (day 84)): 1279
